Publication PMC11364104, “Discovery of SARS-CoV-2 papain-like protease (PL^pro) inhibitors with efficacy in a murine infection model” (Science Advances, 2024)

How the values were obtained:
[1] = system: L-Type Ca (verapamil); assay: CEREP ion channel-binding; settings: 30 µM
[2] = target: T1, human Cav1.2/β2a/α2δ1 calcium channel (Homo sapiens, UniProt Q13936); assay: hCav1.2 automated patch clamp; assay type: cell-based; settings: read-out: CaV IC50
T1 construct: assay run at Metrion Biosciences Ltd; host or cells: HEK
Protocol: 1000 rcf for 2 min and resuspended in CHO-S-SFM II (Gibco) at a density of 3 million cells […]
Ionic currents were evaluated in the whole-cell configuration using the Qube384 automated planar patch clamp platform (Sophion Bioscience A/S, Ballerup, Denmark). QChip 384X plates, containing 10 patch clamp holes per well, were used to maximize success rate, which was routinely > 95%. For hERG experiments, the external solution was composed of (in mM): 140 NaCl, 2 KCl, 2 CaCl2, 1 MgCl2, 10 HEPES, 5 Glucose, pH 7.4, 350 mOsM. The internal solution contained (in mM): 20 KCl, 10 EGTA, 10 HEPES, 120 KF, pH 7.2, 335 mOsM. The hERG current was elicited from a holding potential of -80 mV by a voltage step to +40 mV for 500 ms, followed by a repolarizing ramp to -80 mV at -0.6 mV/ms. […] Peak hERG current was measured during the ramp. […]
This was followed by the addition of increasing concentrations of test compound, with each exposure lasting 5 minutes. Patch clamp data were analyzed using Analyzer Software 6.4.72 (Sophion Bioscience A/S, Ballerup, Denmark). Current amplitudes were determined by averaging the last 4 currents under each test condition. […]
Hz, and hCav1.2 current was measured as the peak current at 0 mV. […]
exposure lasting 5 minutes. Patch clamp data were analyzed using Analyzer Software 6.4.72. Current amplitudes were determined by averaging the last 4 currents under each test condition. […]

[3] = target: CYP3A4 (Homo sapiens, UniProt P08684); assay: biochemical
[4] = system: Vero E6 cells; settings: read-out: Mean CC50; n=3
[5] = target: T2, Norepinephrine Transporter (Homo sapiens, UniProt P23975); assay: CEREP transporters-binding
T2 construct: purchased Eurofins Cerep
T2 sequence (P23975 whole entry): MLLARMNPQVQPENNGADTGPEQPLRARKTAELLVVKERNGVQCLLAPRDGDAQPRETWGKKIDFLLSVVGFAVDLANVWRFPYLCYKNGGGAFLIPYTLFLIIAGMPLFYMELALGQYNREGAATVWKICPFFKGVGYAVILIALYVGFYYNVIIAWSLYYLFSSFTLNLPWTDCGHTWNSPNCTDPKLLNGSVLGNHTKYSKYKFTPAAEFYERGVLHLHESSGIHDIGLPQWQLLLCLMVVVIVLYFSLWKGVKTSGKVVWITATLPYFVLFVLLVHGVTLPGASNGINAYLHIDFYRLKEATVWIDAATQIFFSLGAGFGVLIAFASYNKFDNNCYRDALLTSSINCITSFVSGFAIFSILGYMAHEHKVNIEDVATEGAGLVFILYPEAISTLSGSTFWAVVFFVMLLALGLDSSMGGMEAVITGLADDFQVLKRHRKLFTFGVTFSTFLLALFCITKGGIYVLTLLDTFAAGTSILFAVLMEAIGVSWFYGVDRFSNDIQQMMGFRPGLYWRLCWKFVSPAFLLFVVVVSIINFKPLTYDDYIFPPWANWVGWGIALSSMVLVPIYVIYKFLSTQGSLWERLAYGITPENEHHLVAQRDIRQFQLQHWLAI

[6] = target: hCoV-OC43_PLpro2 (Human coronavirus OC43, UniProt P0C6X6); assay: biochemical; design: species or system OC43-CoV
Sequence of hCoV-OC43_PLpro2 (P0C6X6 1631-1892): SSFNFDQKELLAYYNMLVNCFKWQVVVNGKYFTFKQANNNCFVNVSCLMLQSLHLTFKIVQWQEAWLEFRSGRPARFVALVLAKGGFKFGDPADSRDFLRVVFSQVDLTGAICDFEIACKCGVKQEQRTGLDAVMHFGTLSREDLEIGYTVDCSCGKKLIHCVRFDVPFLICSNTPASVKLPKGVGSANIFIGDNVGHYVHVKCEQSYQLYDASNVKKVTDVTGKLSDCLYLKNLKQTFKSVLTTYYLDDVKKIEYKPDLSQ

[7] = target: T3, Choline Transporter (Homo sapiens, UniProt Q9GZV3); assay: CEREP transporters-binding
T3 construct: purchased Eurofins Cerep
T3 sequence (Q9GZV3 whole entry): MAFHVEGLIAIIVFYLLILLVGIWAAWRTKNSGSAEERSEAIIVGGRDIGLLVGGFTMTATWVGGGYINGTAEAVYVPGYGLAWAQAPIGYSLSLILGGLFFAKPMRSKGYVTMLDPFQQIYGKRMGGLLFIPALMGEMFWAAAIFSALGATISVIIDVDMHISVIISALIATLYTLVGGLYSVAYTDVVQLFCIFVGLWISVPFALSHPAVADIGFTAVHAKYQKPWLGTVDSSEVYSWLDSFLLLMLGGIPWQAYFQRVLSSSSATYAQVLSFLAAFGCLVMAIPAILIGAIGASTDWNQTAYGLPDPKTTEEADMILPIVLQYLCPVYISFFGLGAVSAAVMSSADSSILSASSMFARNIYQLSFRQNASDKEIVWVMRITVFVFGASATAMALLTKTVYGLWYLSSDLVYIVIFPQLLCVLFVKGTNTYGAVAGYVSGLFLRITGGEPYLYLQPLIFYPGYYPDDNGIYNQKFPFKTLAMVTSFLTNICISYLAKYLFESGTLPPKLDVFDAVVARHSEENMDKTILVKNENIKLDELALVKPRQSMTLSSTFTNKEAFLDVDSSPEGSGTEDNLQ

[8] = target: T4, EGFR Kinase (Homo sapiens, UniProt P00533); assay: CEREP kinase inhibition; assay type: biochemical
T4 construct: purchased Eurofins Cerep

[9] = target: T5, Human Caspase 2 (Homo sapiens, UniProt P42575); assay: biochemical
T5 construct: assay run at Reaction Biology Corporation

[10] = target: CYP1A2 (Homo sapiens, UniProt P05177); assay: biochemical
Sequence of CYP1A2 (P05177 whole entry): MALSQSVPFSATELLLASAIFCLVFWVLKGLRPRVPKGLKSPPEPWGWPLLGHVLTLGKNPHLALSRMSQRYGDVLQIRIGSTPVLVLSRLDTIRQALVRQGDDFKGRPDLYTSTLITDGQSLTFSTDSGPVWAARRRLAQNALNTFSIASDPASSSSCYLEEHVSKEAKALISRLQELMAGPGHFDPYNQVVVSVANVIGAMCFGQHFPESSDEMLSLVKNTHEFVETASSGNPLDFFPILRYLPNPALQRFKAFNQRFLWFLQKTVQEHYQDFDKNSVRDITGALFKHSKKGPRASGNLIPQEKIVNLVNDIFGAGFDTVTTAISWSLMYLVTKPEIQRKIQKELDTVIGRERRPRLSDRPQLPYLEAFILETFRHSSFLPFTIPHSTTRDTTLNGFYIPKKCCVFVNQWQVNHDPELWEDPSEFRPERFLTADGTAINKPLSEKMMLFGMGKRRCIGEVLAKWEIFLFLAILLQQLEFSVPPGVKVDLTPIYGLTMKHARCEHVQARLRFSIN

[11] = target: T6, PDE4D2 (Homo sapiens, UniProt Q08499); assay: CEREP enzyme inhibition; assay type: biochemical
T6 construct: purchased Eurofins Cerep
T6 sequence (Q08499 303-809): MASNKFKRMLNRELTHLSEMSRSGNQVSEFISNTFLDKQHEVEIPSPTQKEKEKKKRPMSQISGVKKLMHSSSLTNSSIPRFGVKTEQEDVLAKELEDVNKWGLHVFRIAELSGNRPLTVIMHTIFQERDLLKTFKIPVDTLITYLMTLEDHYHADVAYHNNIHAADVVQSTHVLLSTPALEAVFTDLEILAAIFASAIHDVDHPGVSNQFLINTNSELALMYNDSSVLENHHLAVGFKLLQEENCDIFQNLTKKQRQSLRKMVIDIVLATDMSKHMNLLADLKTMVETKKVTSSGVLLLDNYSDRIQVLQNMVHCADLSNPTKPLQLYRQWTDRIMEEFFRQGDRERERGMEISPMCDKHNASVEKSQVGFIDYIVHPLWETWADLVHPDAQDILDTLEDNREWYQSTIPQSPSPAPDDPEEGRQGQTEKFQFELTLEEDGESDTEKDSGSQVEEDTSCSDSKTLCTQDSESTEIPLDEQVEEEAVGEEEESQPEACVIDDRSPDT

[12] = system: AMPA Receptor; assay: CEREP ion channel-binding; settings: 30 µM
[13] = target: T7, PPAR gamma (Binding) (Homo sapiens, UniProt P37231); assay: CEREP NHR-binding
T7 construct: purchased Eurofins Cerep
T7 sequence (P37231 whole entry): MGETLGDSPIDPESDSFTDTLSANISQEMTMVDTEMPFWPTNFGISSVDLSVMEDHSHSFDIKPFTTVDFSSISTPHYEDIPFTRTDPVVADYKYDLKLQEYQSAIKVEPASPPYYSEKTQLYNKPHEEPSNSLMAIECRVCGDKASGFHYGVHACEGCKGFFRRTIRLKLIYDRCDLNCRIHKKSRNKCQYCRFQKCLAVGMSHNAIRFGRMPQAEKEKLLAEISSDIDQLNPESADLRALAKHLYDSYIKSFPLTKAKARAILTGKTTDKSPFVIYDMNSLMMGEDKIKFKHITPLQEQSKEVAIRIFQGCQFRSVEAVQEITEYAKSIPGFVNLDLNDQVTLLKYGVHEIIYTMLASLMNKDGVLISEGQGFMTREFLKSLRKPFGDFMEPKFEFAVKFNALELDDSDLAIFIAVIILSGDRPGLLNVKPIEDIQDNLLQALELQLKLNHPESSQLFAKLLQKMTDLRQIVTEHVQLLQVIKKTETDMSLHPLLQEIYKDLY

[14] = target: MERS_Plpro (Middle East respiratory syndrome-related coronavirus, UniProt K9N7C7); assay: biochemical; design: species or system MERS-CoV
Sequence of MERS_Plpro (K9N7C7 1552-1823 limits assumed): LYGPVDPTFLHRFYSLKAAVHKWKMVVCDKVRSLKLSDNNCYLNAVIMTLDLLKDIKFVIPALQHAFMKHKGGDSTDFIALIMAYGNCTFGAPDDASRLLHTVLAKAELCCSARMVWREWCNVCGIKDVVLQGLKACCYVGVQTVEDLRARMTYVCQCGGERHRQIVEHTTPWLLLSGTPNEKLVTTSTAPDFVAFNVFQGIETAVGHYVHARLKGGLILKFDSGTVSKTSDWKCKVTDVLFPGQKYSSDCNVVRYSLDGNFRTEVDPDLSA

[15] = target: T8, P38 MAP Kinase (Homo sapiens, UniProt Q16539); assay: CEREP kinase inhibition; assay type: biochemical
T8 construct: purchased Eurofins Cerep
T8 sequence (Q16539 whole entry): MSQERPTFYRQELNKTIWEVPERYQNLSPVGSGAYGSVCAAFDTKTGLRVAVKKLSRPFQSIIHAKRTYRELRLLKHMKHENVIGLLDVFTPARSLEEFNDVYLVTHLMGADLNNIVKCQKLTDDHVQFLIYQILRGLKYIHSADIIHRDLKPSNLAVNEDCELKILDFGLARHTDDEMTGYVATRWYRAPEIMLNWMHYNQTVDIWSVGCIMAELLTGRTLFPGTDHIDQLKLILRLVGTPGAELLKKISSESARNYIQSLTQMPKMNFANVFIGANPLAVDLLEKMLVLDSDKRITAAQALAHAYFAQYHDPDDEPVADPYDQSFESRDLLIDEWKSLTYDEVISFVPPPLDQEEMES

[16] = system: GABA Transporter; assay: CEREP transporters-binding; settings: 30 µM
[17] = target: T9, Angiotensin Converting Enzyme (Homo sapiens, UniProt P12821); assay: CEREP enzyme inhibition; assay type: biochemical
T9 construct: purchased Eurofins Cerep
T9 sequence (P12821 30-1306): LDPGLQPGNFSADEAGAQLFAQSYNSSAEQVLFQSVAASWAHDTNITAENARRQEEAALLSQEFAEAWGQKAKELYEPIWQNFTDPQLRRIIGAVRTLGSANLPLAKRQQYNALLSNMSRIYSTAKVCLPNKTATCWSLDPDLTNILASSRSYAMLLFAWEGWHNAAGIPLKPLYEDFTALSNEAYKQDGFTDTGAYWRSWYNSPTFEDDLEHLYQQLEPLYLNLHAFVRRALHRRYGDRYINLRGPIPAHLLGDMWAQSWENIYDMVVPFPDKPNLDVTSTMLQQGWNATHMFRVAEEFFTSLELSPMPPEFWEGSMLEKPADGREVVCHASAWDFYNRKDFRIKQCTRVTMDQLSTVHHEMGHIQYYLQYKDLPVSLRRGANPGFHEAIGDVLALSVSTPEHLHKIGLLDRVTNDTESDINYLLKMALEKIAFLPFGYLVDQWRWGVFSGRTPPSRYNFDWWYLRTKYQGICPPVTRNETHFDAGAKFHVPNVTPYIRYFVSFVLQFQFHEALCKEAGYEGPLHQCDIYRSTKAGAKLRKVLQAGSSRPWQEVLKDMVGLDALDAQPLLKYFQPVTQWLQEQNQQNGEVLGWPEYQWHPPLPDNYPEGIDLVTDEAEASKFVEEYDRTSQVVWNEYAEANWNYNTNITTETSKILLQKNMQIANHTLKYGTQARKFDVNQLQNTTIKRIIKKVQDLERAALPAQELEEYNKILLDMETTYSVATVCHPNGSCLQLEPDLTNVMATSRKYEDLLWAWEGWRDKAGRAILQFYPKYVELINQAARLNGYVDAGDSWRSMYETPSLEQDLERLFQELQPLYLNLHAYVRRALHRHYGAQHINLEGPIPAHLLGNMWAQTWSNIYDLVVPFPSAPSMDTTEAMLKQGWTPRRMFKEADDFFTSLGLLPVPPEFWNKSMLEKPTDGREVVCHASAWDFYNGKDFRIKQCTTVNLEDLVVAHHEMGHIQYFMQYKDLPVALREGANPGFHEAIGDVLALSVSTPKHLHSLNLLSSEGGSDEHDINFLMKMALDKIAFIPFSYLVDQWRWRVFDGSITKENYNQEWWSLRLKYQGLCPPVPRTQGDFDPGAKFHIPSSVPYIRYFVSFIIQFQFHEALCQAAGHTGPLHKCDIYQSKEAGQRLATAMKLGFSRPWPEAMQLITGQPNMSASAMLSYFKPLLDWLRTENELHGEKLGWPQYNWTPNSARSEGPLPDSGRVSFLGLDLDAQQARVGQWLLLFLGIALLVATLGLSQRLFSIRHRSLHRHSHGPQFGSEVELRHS

Cc1ccc(N2CCN(C)CC2)cc1C(=O)NC1(c2cc(-c3cnn(C)c3)nc3ccccc23)CC1 [Compound 4]
% inhibition [1]: -19% | IC50 [2]: > 100 µM | IC50 [3]: > 30 µM | CC50 [4]: 78.7 µM | inhibition at 30 µM [5]: -6% | Ki [6]: > 10 µM | activity on OC43 PL^pro [6]: nearly inactive | inhibition at 30 µM [7]: 25% | inhibition at 30 µM [8]: 9% | IC50 [9]: > 100 µM | IC50 [10]: 72.2 µM | inhibition at 30 µM [11]: 20% | % inhibition [12]: 13% | inhibition at 30 µM [13]: 9% | Ki [14]: > 10 µM | activity on MERS PL^pro [14]: nearly inactive | inhibition at 30 µM [15]: 10% | % inhibition [16]: -4% | inhibition at 30 µM [17]: 14%
